Source: patent publication US11167059B2, “Compositions with reactive ingredients, and wound dressings, apparatuses, and methods” (KCI Licensing, Inc., priority 2010, dated 2021)

Columns and labels:
[1] = system: Methicillin-resistant Staphylococcus aureus (MRSA); experiment: inhibition zone on MRSA monolayer in petri dish; format: cell-based; conditions: 30 μg control dose, 18 hours at 37° C.
Description: Experiments were performed for some of the present reactive agents (and/or resulting solutions) to investigate their antibacterial properties. In a first experiment, an even monolayer of Methicillin-resistant Staphylococcus aureus (MRSA) bacteria was spread across the surface of each of several petri dishes, and either a 30 μg control dose of Vancomycin, or an 8 mm×5 mm piece of sponge was placed on each petri dish. The pieces of sponge included: a piece of polyurethane foam coated with a silver (Ag), a piece of dry silicone foam, a piece of silicone foam impregnated with a Polyhexanide solution, a piece of silicone foam deposited with Ca(ClO)2 salt, and a piece of silicone foam deposited with NaClO salt. After placement of the pieces of foam, saline was dropped onto the foams deposited with Ca(ClO)2 and NaClO salts, respectively, Each petri dish was incubated for eighteen (18) hours at 37° C., and the clear area in which the bacteria had been killed (inhibition zone) was measured. […] In a second, similar experiment, the monolayer of bacteria was E. Coli instead of MRSA, and the remainder of the second experiment was substantially the same as the first. The results of the second experiment were also similar. […] From these preliminary experiments, the inventors believe the present reactive agents and the resulting solutions to have effective antimicrobial properties. […]

[2] = compatibility of suspension agents with Ca(OCl)2 (OCl− concentration by UV-Vis); format: physicochemical; conditions: about 13 mg Ca(OCl)2 in methylene chloride solution of agent, about one hour in the dark
Description: FIG. 6B depicts a chart illustrating the correlation of hypochlorite concentration from the UV absorbance of FIG. 6A with corresponding concentrations obtained by Iodine titration. FIG. 6C depicts a chart of OCl^− concentration in solutions with certain of the present suspension agents, including a control of only Ca(OCl)2 in solution (of methylene chloride), Ca(OCl)2 in PCL-1 solution having 0.5 g of PCL per 100 mL of methylene chloride; Ca(OCl)2 in PCL-2 solution having 1.0 g of PCL per 100 mL of methylene chloride; and Ca(OCl)2 in solution with TWEEN 80 (also known as polysorbate 80) having 0.1 g of TWEEN 80 per 10 g of methylene chloride. […] For each solution, approximately 13 mg of Ca(OCl)2 was added to each methylene chloride solution and the solution was placed in the dark for a period of about one hour. Then 5 mL of distilled water was added to each solution, and each was shaken to mix its respective ingredients. […] After settling, for each solution, one milliliter of the aqueous layer was removed and mixed with 10 mL of 0.1 N NaOH (e.g., to increase the pH to ensure all hypochlorous acid is converted to hypochlorite for complete capture of active chlorine), and evaluated with UV-Vis spectroscopy to determine the concentration of OCl (e.g., to determine whether the OCl— had degraded or been consumed by the polymer).

CN[C@H](CC(C)C)C(=O)N[C@H]1C(=O)N[C@@H](CC(N)=O)C(=O)N[C@H]2C(=O)N[C@H]3C(=O)N[C@H](C(=O)N[C@H](C(=O)O)c4cc(O)cc(O)c4-c4cc3ccc4O)[C@H](O)c3ccc(c(Cl)c3)Oc3cc2cc(c3O[C@@H]2O[C@H](CO)[C@@H](O)[C@H](O)[C@H]2O[C@H]2C[C@](C)(N)[C@H](O)[C@H](C)O2)Oc2ccc(cc2Cl)[C@H]1O [Vancomycin]
inhibition zone [1]: 200 mm^2

polysorbate 80 [TWEEN 80]
compatibility of suspension agent with Ca(OCl)2 [2]: compatible with Ca(OCl)2
